These results are taken from patent US9464075B2 (priority 2008, dated 2016).

The target of test [1] is T1, A/M2-V27A (Influenza A virus, UniProt P0DOF5, V27A). The test is classed as cell-based.
Test [2] deals with influenza virus, containing the A/M2-V27A mutation. The test is classed as cell-based.
For another test, the target named is A/M2-S31N (Influenza A virus, UniProt P0DOF5, S31N). Type of test: cell-based, Influenza virus A/Udorn/72.
For test [3], the target named is T1, A/M2-V27A. Type of test: cell-based, Influenza virus A/Udorn/72.
The target of a further test is A/M2-V27G (Influenza A virus, UniProt P0DOF5, V27G). The test is classed as cell-based, Influenza virus A/Udorn/72.
The target of the next test is A/M2-G34E (Influenza A virus, UniProt P0DOF5, G34E). Type of test: cell-based, Influenza virus A/Udorn/72.
The next test addresses A/M2-A30T (Influenza A virus, UniProt P0DOF5, A30T). The test is classed as cell-based, Influenza virus A/Udorn/72.
Another test deals with A/M2-L26F (Influenza A virus, UniProt P0DOF5, L26F). The test is classed as cell-based, Influenza virus A/Udorn/72.

Turning to `NC1CSC2(CCCCCC2)SC1` [Compound 34, 1,5-Dithia-spiro[5.6]dodec-3-yl-ammonium chloride], at A/M2-V27A [1], the “AM2 V27A % inhibition at 100 μM” value is given as 33 (0%) 34 (46.9%).
Consider `C1CCC2(CC1)CCN(C1=NCCN1)CC2` [BL-1743, 3-(4,5-Dihydro-1H-imidazol-2-yl)-3-aza-spiro[5.5]undecane, reference compound], for which the “inhibition of plaque formation (in words)” value in test [2] is reported as “failed to inhibit plaque formation”. The “% remaining activity after application of 100 μM compound” value (“% remaining activity after application” below) at A/M2-S31N was found to be 100 ± 0.67%; on A/M2-V27A [3], 97.4 ± 1.8%; at A/M2-V27G, 82.9 ± 9.3%; on A/M2-G34E it was 89.8 ± 6.9%; on A/M2-A30T, 102 ± 2.3%; at A/M2-L26F, 89.2 ± 4.8%.
Consider `NC12CC3CC(CC(C3)C1)C2` [Amantadine, reference compound], for which the “inhibition of plaque formation (in words)” value in test [2] is reported as “failed to inhibit plaque formation”. The “% remaining activity after application” value on A/M2-S31N was 65.3 ± 2.7%; at A/M2-V27A [3], 93.07 ± 1.9%; on A/M2-V27G, 95 ± 4.9%; on A/M2-G34E, 100.4 ± 6.7%; at A/M2-A30T, 104.6 ± 4.3%; at A/M2-L26F it was 51.8 ± 3.5%.
As for `Cl.NC1CSC2(CCCCC2)SC1` [Compound 33, 1,5-Dithia-spiro[5.5]undec-3-yl-ammonium chloride], at A/M2-V27A [1], the “AM2 V27A % inhibition at 100 μM” value is 33 (0%) 34 (46.9%).
`Cl.NC1CCC2(CCCCC2)CC1` [Compound 8]: the “concentration at which plaque formation was reduced” value in test [2] came to 5 µM. The “% remaining activity after application” value is 99.1 ± 0.9% at A/M2-S31N; 46.6 ± 6.6% at A/M2-V27A [3]; 87.9 ± 6.1% on A/M2-V27G; 96. ± 5.9% at A/M2-G34E; 98.1 ± 7.0% on A/M2-A30T; 32.4 ± 3.3% at A/M2-L26F. Also, the “inhibition of the mutant (in words)” value against A/M2-S31N is “little inhibition”.
On to `CNC1CCC2(CCCCC2)CC1.Cl` [Compound 9], for which the “% remaining activity after application” value at A/M2-S31N is reported as 100 ± 4.1%; on A/M2-V27A [3], 70.2 ± 1.55%; on A/M2-V27G, 89.6 ± 4.1%; on A/M2-G34E, 101.7 ± 2.8%; at A/M2-A30T, 101. ± 3.2%; on A/M2-L26F it was 72.6 ± 8.4%.
`Cl.NNC1CCC2(CCCCC2)CC1` [Compound 31, N′-Spiro[5.5]undec-3-yl-hydrazinium chloride]: the “AM2 V27A % inhibition at 100 μM” value on A/M2-V27A [1] was 31 (7.1%).
As to `N=C(N)NC1CCC2(CCCCC2)CC1` [Compound 35], at A/M2-V27A [1], the “AM2 V27A % inhibition at 100 μM” value was 35 (14.6%).
